Source: publication PMC7998309, “Structural-Based Optimizations of the Marine-Originated Meridianin C as Glucose Uptake Agents by Inhibiting GSK-3β” (Marine Drugs, 2021)

Key:
[1] = MTT assay for cell viability (cytotoxicity); assay type: cell-based, human; settings: human; HepG2 cells, 48 h incubation, MTT
Procedure: The hepatocyte cell line HepG2 cells obtained from the Type Culture Collection of the Chinese Academy of Sciences (Shanghai, China) were maintained in high-glucose DMEM (Gibco) supplemented with 10% fetal bovine serum (FBS) and 1% penicillin-streptomycin in an atmosphere of 5% CO2 at 37 °C.
Into a 96-well plate, 1 × 10^3 HepG2 cells per well were seeded. After 24 h, stock solutions of test compounds in DMSO were diluted in DMEM to ≤0.1% final DMSO concentration. Cells were treated with various concentrations (2.5–25 µM) of tested compounds for 48 h, and the MTT solution (0.5 mg/mL) was added. After 4 h of incubation at 37 °C for MTT-formazan formation, the supernatant was discarded and 100 µL of DMSO was applied into each well to dissolve formazan crystals. Absorbance at 490 nm was determined spectrophotometrically by using a microplate reader (Epoch, BioTek Instruments, Inc., Winooski, VT, USA).

SMILES | melting point | CC50 at 48 h [1]
Nc1ncc(-c2ccc(NC(=O)c3ccccc3F)cc2)c(-c2c[nH]c3ccc(Br)cc23)n1 [A7, N-(4-(2-amino-4-(5-bromo-1H-indol-3-yl)pyrimidin-5-yl)phenyl)-2-fluorobenzamide] | 159.6 to 160.4 °C | 18.1 µM
COc1ccccc1C(=O)Nc1ccc(-c2cnc(N)nc2-c2c[nH]c3ccc(Br)cc23)cc1 [A22, N-(4-(2-amino-4-(5-bromo-1H-indol-3-yl)pyrimidin-5-yl)phenyl)-2-methoxybenzamide] | 154.9 to 155.6 °C | > 25 µM
Cc1cccc(C(=O)Nc2ccc(-c3cnc(N)nc3-c3c[nH]c4ccc(Br)cc34)cc2)c1 [A20, N-(4-(2-amino-4-(5-bromo-1H-indol-3-yl)pyrimidin-5-yl)phenyl)-3-methylbenzamide] | 211.8 to 212.9 °C | 13.2 µM
Nc1ncc(-c2ccc(NC(=O)c3ccc(Cl)cc3)cc2)c(-c2c[nH]c3ccc(Br)cc23)n1 [A12, N-(4-(2-amino-4-(5-bromo-1H-indol-3-yl)pyrimidin-5-yl)phenyl)-4-chlorobenzamide] | 261.7 to 262.5 °C | 7.5 µM
CC(C)(C)C(=O)Nc1ccc(-c2cnc(N)nc2-c2c[nH]c3ccc(Br)cc23)cc1 [A4, N-(4-(2-amino-4-(5-bromo-1H-indol-3-yl)pyrimidin-5-yl)phenyl) Pivalamide] | 139.6 to 140.3 °C | 11.9 µM
Nc1ncc(-c2ccc(NC(=O)c3ccccc3C(F)(F)F)cc2)c(-c2c[nH]c3ccc(Br)cc23)n1 [A16, N-(4-(2-amino-4-(5-bromo-1H-indol-3-yl)pyrimidin-5-yl)phenyl)-2-(trifluoromethyl) Benzamide] | 163.6 to 164.3 °C | 9.9 µM
Nc1ncc(-c2ccc(NC(=O)c3cccc(Cl)c3)cc2)c(-c2c[nH]c3ccc(Br)cc23)n1 [A11, N-(4-(2-amino-4-(5-bromo-1H-indol-3-yl)pyrimidin-5-yl)phenyl)-3-chlorobenzamide] | 204.8 to 205.2 °C | 18.5 µM
Cc1ccccc1C(=O)Nc1ccc(-c2cnc(N)nc2-c2c[nH]c3ccc(Br)cc23)cc1 [A19, N-(4-(2-amino-4-(5-bromo-1H-indol-3-yl)pyrimidin-5-yl)phenyl)-2-methylbenzamide] | 170.7 to 171.6 °C | 10.3 µM
Nc1ncc(-c2ccc(NC(=O)c3ccc(F)cc3)cc2)c(-c2c[nH]c3ccc(Br)cc23)n1 [A9, N-(4-(2-amino-4-(5-bromo-1H-indol-3-yl)pyrimidin-5-yl)phenyl)-4-fluorobenzamide] | 178.6 to 179.4 °C | 6 µM
CC(C)C(=O)Nc1ccc(-c2cnc(N)nc2-c2c[nH]c3ccc(Br)cc23)cc1 [A3, N-(4-(2-amino-4-(5-bromo-1H-indol-3-yl)pyrimidin-5-yl)phenyl) Isobutyramide] | 172.6 to 173.3 °C | 10.8 µM
CCC(=O)Nc1ccc(-c2cnc(N)nc2-c2c[nH]c3ccc(Br)cc23)cc1 [A1, N-(4-(2-amino-4-(5-bromo-1H-indol-3-yl)pyrimidin-5-yl)phenyl) Propionamide] | 193.6 to 194.2 °C | 16.7 µM
Nc1ncc(-c2ccc(NC(=O)c3ccc(Br)cc3)cc2)c(-c2c[nH]c3ccc(Br)cc23)n1 [A15, N-(4-(2-amino-4-(5-bromo-1H-indol-3-yl)pyrimidin-5-yl)phenyl)-4-bromobenzamide] | 276.4 to 277.3 °C | 7.1 µM
Nc1ncc(-c2ccc(NC(=O)c3cc(F)ccc3F)cc2)c(-c2c[nH]c3ccc(Br)cc23)n1 [A25, N-(4-(2-amino-4-(5-bromo-1H-indol-3-yl)pyrimidin-5-yl)phenyl)-2,5-difluorobenzamide] | 163.5 to 164.3 °C | 8.9 µM
Nc1ncc(-c2ccc(NC(=O)Cc3ccccc3)cc2)c(-c2c[nH]c3ccc(Br)cc23)n1 [A5, N-(4-(2-amino-4-(5-bromo-1H-indol-3-yl)pyrimidin-5-yl)phenyl)-2-phenylacetamide] | 207.6 to 208.4 °C | 20.9 µM
Nc1ncc(-c2ccc(NC(=O)c3cccc(C(F)(F)F)c3)cc2)c(-c2c[nH]c3ccc(Br)cc23)n1 [A17, N-(4-(2-amino-4-(5-bromo-1H-indol-3-yl)pyrimidin-5-yl)phenyl)-3-(trifluoromethyl) Benzamide] | 172.6 to 173.3 °C | 14.3 µM

Second part, led by results:

melting point | SMILES | CC50 at 48 h [1]
251.3 to 252.2 °C | Fc1cc(F)cc(Nc2nccc(-c3c[nH]c4ccc(Br)cc34)n2)c1 [B23, 4-(5-Bromo-1H-indol-3-yl)-N-(3,5-difluorophenyl) pyrimidin-2-amine] | 16.1 µM
220.9 to 221.3 °C | FC(F)(F)c1cc(Nc2nccc(-c3c[nH]c4ccc(Br)cc34)n2)cc(C(F)(F)F)c1 [B26, N-(3,5-bis(trifluoromethyl)phenyl)-4-(5-bromo-1H-indol-3-yl) pyrimidin-2-amine] | 11.8 µM
279.5 to 280.3 °C | FC(F)(F)c1ccc(Nc2nccc(-c3c[nH]c4ccc(Br)cc34)n2)cc1 [B12, 4-(5-Bromo-1H-indol-3-yl)-N-(4-(trifluoromethyl)phenyl) pyrimidin-2-amine] | > 25 µM
214.8 to 215.6 °C | Brc1cccc(Nc2nccc(-c3c[nH]c4ccc(Br)cc34)n2)c1 [B8, 4-(5-Bromo-1H-indol-3-yl)-N-(3-bromophenyl) pyrimidin-2-amine] | 18.7 µM
171.8 to 172.3 °C | FC(F)(F)c1cccc(Nc2nccc(-c3c[nH]c4ccc(Br)cc34)n2)c1 [B11, 4-(5-Bromo-1H-indol-3-yl)-N-(3-(trifluoromethyl)phenyl) pyrimidin-2-amine] | 17.6 µM
218.7 to 219.4 °C | CC(C)c1ccc(Nc2nccc(-c3c[nH]c4ccc(Br)cc34)n2)cc1 [B21, 4-(5-Bromo-1H-indol-3-yl)-N-(4-isopropylphenyl) pyrimidin-2-amine] | 13 µM
208.7 to 209.3 °C | COc1cccc(Nc2nccc(-c3c[nH]c4ccc(Br)cc34)n2)c1 [B17, 4-(5-Bromo-1H-indol-3-yl)-N-(3-methoxyphenyl) pyrimidin-2-amine] | 10.6 µM
184.6 to 185.3 °C | Cc1cc(C)cc(Nc2nccc(-c3c[nH]c4ccc(Br)cc34)n2)c1 [B27, 4-(5-Bromo-1H-indol-3-yl)-N-(3,5-dimethylphenyl) pyrimidin-2-amine] | 6 µM
141.5 to 142.3 °C | Cc1cccc(Nc2nccc(-c3c[nH]c4ccc(Br)cc34)n2)c1 [B14, 4-(5-Bromo-1H-indol-3-yl)-N-(m-tolyl) pyrimidin-2-amine] | 8.6 µM
210.3 to 211.4 °C | Clc1cccc(Nc2nccc(-c3c[nH]c4ccc(Br)cc34)n2)c1 [B5, 4-(5-Bromo-1H-indol-3-yl)-N-(3-chlorophenyl) pyrimidin-2-amine] | > 25 µM
227.8 to 228.6 °C | Cc1ccc(Nc2nccc(-c3c[nH]c4ccc(Br)cc34)n2)cc1 [B15, 4-(5-Bromo-1H-indol-3-yl)-N-(p-tolyl) pyrimidin-2-amine] | 15.5 µM
152.6 to 153.4 °C | CC(C)c1cccc(Nc2nccc(-c3c[nH]c4ccc(Br)cc34)n2)c1 [B20, 4-(5-Bromo-1H-indol-3-yl)-N-(3-isopropylphenyl) pyrimidin-2-amine] | 12.5 µM
